According to patent US11413321B2, “Pharmaceutical composition for use in increasing hair, modifying scalp or skin, healing a wound, promoting osteogenesis, or modifying hair” (priority 2017, dated 2022):

How the values were obtained:
Assay type in all cases: in vivo, Wistar rat
[1] = test system: full-thickness skin defect; assay: Wound healing score, circular full-thickness skin defect on the dorsal part
Method: Formation of wounds: hair on the dorsal part of a 12-week-old Wistar rat was shaven with hair clippers, and a circular full-thickness skin defect with a diameter of 8 mm was produced on each of the left and right sides of the head and the left and right sides of the tail. The full-thickness skin defect was formed at four locations per body.
Administration of milk: 20 μL of milk was subcutaneously injected at each of four locations, namely upper, lower, left and right, in a place 4 mm away from the peripheral edge of the wound. As the milk, the commercially available bovine milk sterilized by heating (at 130 degrees for 2 seconds and 65 degrees for 30 minutes) as described in Example 1 was used.
Administration of fatty acid: As a fatty acid contained in the milk, sterile purified water (administration liquid) containing palmitic acid, stearic acid, myristic acid, linolenic acid, α-linoleic acid and oleic acid, respectively was administered. Here, the water was heated and administered for the saturated fatty acids, and the water was administered at room temperature for the unsaturated fatty acids. 20 μL of the administration liquid (containing 1 mg of the fatty acid) was subcutaneously administered at each of four locations, namely upper, lower, left and right, in a place 4 mm away from the peripheral edge of the wound.
Score 4: The reduction ratio of the area of the wound site is 70% or more.
Score 3: The reduction ratio of the area of the wound site is 50% or more and less than 70%.
Score 2: The reduction ratio of the area of the wound site is 20% or more and less than 50%.
Score 1: The reduction ratio of the area of the wound site is less than 20%.
The result was given as a ratio obtained by dividing the above score by the score for physiological saline.
Two tubes of 8 mL of commercially available milk sterilized at a low temperature (65 degrees for 30 minutes) were centrifuged by a centrifugal separator (2600 g×6 minutes), 2 mL of one fourth of the supernatant exclusive of a whip portion was collected from each tube, the two collected liquids were combined to obtain 4 mL of a liquid, and 4 mL of the resulting liquid was stirred, and used for experiments (hereinafter, the obtained sample is referred to as a “centrifuged sample”). The obtained centrifuged sample was administered to the wound site at a dosage of 20 μL per location in the same manner as described above. The results are shown in “Centrifuged Sample” in FIG. 6A.
Next, a wound healing-promoting effect of lactoferrin was examined. As lactoferrin, Nice rim essence 62971 (trade name) purchased from Lion Corporation was used and administered at one location in an amount of 20 μg or 60 μg in the same manner as described above. Specifically, the lactoferrin was ground, and then thoroughly dissolved in purified water. The lactoferrin concentration was adjusted so that an injection amount of 20 μL included the above administration amount. The result was given as a value obtained by dividing each of scores after seven days and after ten days by the score for the physiological saline administration group.

CD68-positive cells [2] = assay: Immunohistological staining of rat dorsal skin after injection of fatty acids (CD68); conditions: 1 mg fatty acid in 20 μL per location; for number of CD68-positive cells (overall statement): a weak effect was observed overall
Method: (§1) Next, representative fatty acids contained in milk were administered to a 12-week-old Wistar rat at a plurality of locations on the dorsal skin as in Example 1(2) above, and a change in tissues by the administration was observed after the tissues were subjected to immunohistological staining. More specifically, physiological saline was administered in an amount of 20 μL per location, an administration liquid containing 1 mg of a fatty acid was administered in an amount of 20 μL per location, and a change in CD68-positive macrophage stained images and PPAR-γ-positive cell images by the administration was observed. Samples of the Wistar rat were obtained by sampling administration sites (four weeks after administration and eight weeks after administration). FIGS. 10A to 10G show the results. […] At saturated fatty acid injection sites, infiltration of a large number of CD68-positive cells was observed, and fibrillization of normal tissues was observed. Therefore, in FIGS. 10B to 10D, a change in fat tissues was examined at a location which was closest to the administration site and where normal tissues were maintained (non-fibrillization location).

PPAR-γ-positive cells [3] = assay: Immunohistological staining of rat dorsal skin after injection of fatty acids (PPAR-γ); conditions: 1 mg fatty acid in 20 μL per location; for number of PPAR-γ-positive cells at the administration site: four weeks after administration, vs physiological saline, FIGS. 10B-10G; for increase in the number of PPAR-γ-positive cells at the administration site: eight weeks after administration
Method: as §1

CD68-positive cells [4] = assay: Immunohistological staining of rat dorsal skin after forced oral lactoferrin (CD68); conditions: 300 mg oral once a day, eight weeks after administration, n=3; FIG. 9
Method: (§2) As a comparative test, lactoferrin was administered instead of milk, and whether the number of CD68-positive cells and the number of PPAR-γ-positive cells increased or not was examined. As lactoferrin, three tablets of Nice rim essence 62971 (manufactured by Lion Corporation) corresponding to 300 mg of active lactoferrin (amount ingested per day by a human) were orally administered to a 12-week-old Wistar rat (n=3). Administration was performed once a day with the tablets injected (forcedly ingested) into the stomach using a feeding needle. Eight weeks after administration, a paraffin-embedded section of the dorsal skin was prepared by a conventional method, and subjected to immunohistological staining.

PPAR-γ-positive cells [5] = assay: Immunohistological staining of rat dorsal skin after forced oral lactoferrin (PPAR-γ); conditions: 300 mg oral once a day, eight weeks after administration, n=3; FIG. 9
Method: as §2

[6] = 20 μL administration liquid containing 1 mg of the fatty acid at each of four locations, FIG. 6C
[7] = eight weeks after administration
[8] = four weeks after administration, vs physiological saline

Q: Which “wound healing-promoting effect (score divided by the score for physiological saline)” value [1, 6] does the source give for `CCCCC/C=C\C/C=C\CCCCCCCC(=O)O` [linoleic acid] here?
A: weak wound healing-promoting effect

Q: What about the “number of CD68-positive cells (overall statement)” value (“number … (overall statement)” for short) (CD68-positive cells [2]) of the same compound?
A: did not greatly increase

Q: And the “number of CD68-positive cells at the administration site” value (CD68-positive cells [2]; [7])?
A: increased

Q: And the “number of CD68-positive cells at the administration site” value (CD68-positive cells [2]; [8])?
A: did not remarkably increase

Q: And the “number of PPAR-γ-positive cells at the administration site” value (PPAR-γ-positive cells [3])?
A: did not remarkably increase

Q: How did the “wound healing-promoting effect (score divided by the score for physiological saline)” value [1, 6] turn out when `CCCCCCCCCCCCCCCCCC(=O)O` [stearic acid] was run?
A: high promoting effect

Q: And the “number of CD68-positive cells at the administration site” value (CD68-positive cells [2]; [7])?
A: maintained

Q: And the “number of CD68-positive cells at the administration site” value (CD68-positive cells [2]; [8])?
A: increased

Q: And the “increase in the number of PPAR-γ-positive cells at the administration site” value (PPAR-γ-positive cells [3])?
A: maintained

Q: What about the “number of PPAR-γ-positive cells at the administration site” value (PPAR-γ-positive cells [3]) of the same compound?
A: increased

Q: Which results are given for lactoferrin?
A: wound healing-promoting effect (score divided by the score for physiological saline) ([1]; 20 μg or 60 μg per location in 20 μL, after seven days and after ten days, FIG. 6B): did not exhibit a significant promoting effect; number of CD68-positive cells in dorsal skin (CD68-positive cells [4]): did not increase; number of PPAR-γ-positive cells in dorsal skin (PPAR-γ-positive cells [5]): did not increase

Q: With `CCCCCCCCCCCCCC(=O)O` [myristic acid] as the compound, how does the “wound healing-promoting effect (score divided by the score for physiological saline)” value [1, 6] read?
A: high promoting effect

Q: And the “number of CD68-positive cells at the administration site” value (CD68-positive cells [2]; [7])?
A: maintained

Q: And the “number of CD68-positive cells at the administration site” value (CD68-positive cells [2]; [8])?
A: increased

Q: And the “increase in the number of PPAR-γ-positive cells at the administration site” value (PPAR-γ-positive cells [3])?
A: maintained

Q: What about the “number of PPAR-γ-positive cells at the administration site” value (PPAR-γ-positive cells [3]) of the same compound?
A: increased

Q: With `CC/C=C\C/C=C\C/C=C\CCCCCCCC(=O)O` [α-linolenic acid] as the compound, how does the “wound healing-promoting effect (score divided by the score for physiological saline)” value [1, 6] read?
A: weak wound healing-promoting effect

Q: And the “number … (overall statement)” value (CD68-positive cells [2])?
A: did not greatly increase

Q: What about the “number of CD68-positive cells at the administration site” value (CD68-positive cells [2]; [7]) of the same compound?
A: increased

Q: And the “number of CD68-positive cells at the administration site” value (CD68-positive cells [2]; [8])?
A: did not remarkably increase

Q: What about the “number of PPAR-γ-positive cells at the administration site” value (PPAR-γ-positive cells [3]) of the same compound?
A: did not remarkably increase

Q: Which “wound healing-promoting effect (score divided by the score for physiological saline)” value [1, 6] does the source give for `CCCCCCCC/C=C\CCCCCCCC(=O)O` [oleic acid] here?
A: weak wound healing-promoting effect

Q: What about the “number … (overall statement)” value (CD68-positive cells [2]) of the same compound?
A: did not greatly increase

Q: What about the “number of CD68-positive cells at the administration site” value (CD68-positive cells [2]; [7]) of the same compound?
A: increased

Q: And the “number of CD68-positive cells at the administration site” value (CD68-positive cells [2]; [8])?
A: did not remarkably increase

Q: What about the “number of PPAR-γ-positive cells at the administration site” value (PPAR-γ-positive cells [3]) of the same compound?
A: did not remarkably increase
